# Source: the supplement of paper PMC10307832
# What was measured:
# Assay in all cases: relative viability (nuclei count vs DMSO), 5 days (fraction); higher = more cells survive
# NCI-H441 = system: NCI-H441
# In short: (§1)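 Five library-drug doses in √10 steps were combined with a fixed anchor-drug dose, or a single drug was given alone, by pin tool to lung cancer cell lines in 1536-well plates the day after seeding. Nuclei were stained and counted after 5 days. Relative viability is the nuclei count in treated wells over that in vehicle wells, taken as the median of duplicate plates.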
# NCI-H2085 = system: NCI-H2085
# In short: as §1
# SW 900 = system: SW 900
# In short: as §1
# H3255 = system: H3255
# In short: as §1
# NCI-H2170 = system: NCI-H2170
# In short: as §1
# LOU-NH91 = system: LOU-NH91
# In short: as §1
# PC-14 = system: PC-14
# In short: as §1
# NCI-H1993 = system: NCI-H1993
# In short: as §1
# 201T = system: 201T
# In short: as §1
# NCI-H1793 = system: NCI-H1793
# In short: as §1
# COR-L23 = system: COR-L23
# In short: as §1
# NCI-H3122 = system: NCI-H3122
# In short: as §1
# HCC-44 = system: HCC-44
# In short: as §1
# NCI-H2405 = system: NCI-H2405
# In short: as §1
# NCI-H647 = system: NCI-H647
# In short: as §1
# NCI-H520 = system: NCI-H520
# In short: as §1
# NCI-H1734 = system: NCI-H1734
# In short: as §1
# EPLC-272H = system: EPLC-272H
# In short: as §1
# NCI-H2347 = system: NCI-H2347
# In short: as §1
# NCI-H1650 = system: NCI-H1650
# In short: as §1
# NCI-H2023 = system: NCI-H2023
# In short: as §1
# RERF-LC-KJ = system: RERF-LC-KJ
# In short: as §1
compound,measurement,setting,value
CC1(C)CCC(c2ccc(Cl)cc2)=C(CN2CCN(c3ccc(C(=O)NS(=O)(=O)c4ccc(N[C@H](CCN5CCOCC5)CSc5ccccc5)c(S(=O)(=O)C(F)(F)F)c4)cc3)CC2)C1 [Navitoclax] + Nc1ncn([C@H]2C[C@H](O)[C@@H](CO)O2)c(=O)n1 [Decitabine] (partner 2 µM),relative viability,NCI-H441; first compound 0.005 µM,0.255
same,relative viability,NCI-H441; first compound 0.01581 µM,0.217
same,relative viability,NCI-H441; first compound 0.05 µM,0.207
same,relative viability,NCI-H441; first compound 0.1581 µM,0.2
same,relative viability,NCI-H441; first compound 0.5 µM,0.237
same,relative viability,NCI-H2085; first compound 0.005 µM,0.612
same,relative viability,NCI-H2085; first compound 0.01581 µM,0.695
same,relative viability,NCI-H2085; first compound 0.05 µM,0.474
same,relative viability,NCI-H2085; first compound 0.1581 µM,0.579
same,relative viability,NCI-H2085; first compound 0.5 µM,0.562
same,relative viability,SW 900; first compound 0.005 µM,0.406
same,relative viability,SW 900; first compound 0.01581 µM,0.412
same,relative viability,SW 900; first compound 0.1581 µM,0.445
same,relative viability,SW 900; first compound 0.5 µM,0.262
same,relative viability,H3255; first compound 0.005 µM,0.503
same,relative viability,H3255; first compound 0.01581 µM,0.668
same,relative viability,H3255; first compound 0.05 µM,0.567
same,relative viability,H3255; first compound 0.1581 µM,0.596
same,relative viability,H3255; first compound 0.5 µM,0.519
same,relative viability,NCI-H2170; first compound 0.005 µM,0.473
same,relative viability,NCI-H2170; first compound 0.01581 µM,0.484
same,relative viability,NCI-H2170; first compound 0.05 µM,0.475
same,relative viability,NCI-H2170; first compound 0.1581 µM,0.414
same,relative viability,NCI-H2170; first compound 0.5 µM,0.434
same,relative viability,LOU-NH91; first compound 0.005 µM,0.798
same,relative viability,LOU-NH91; first compound 0.01581 µM,0.88
same,relative viability,LOU-NH91; first compound 0.05 µM,0.79
same,relative viability,LOU-NH91; first compound 0.1581 µM,0.711
same,relative viability,LOU-NH91; first compound 0.5 µM,0.391
same,relative viability,PC-14; first compound 0.005 µM,0.237
same,relative viability,PC-14; first compound 0.01581 µM,0.2
same,relative viability,PC-14; first compound 0.05 µM,0.228
same,relative viability,PC-14; first compound 0.1581 µM,0.211
same,relative viability,PC-14; first compound 0.5 µM,0.19
same,relative viability,NCI-H1993; first compound 0.005 µM,0.659
same,relative viability,NCI-H1993; first compound 0.01581 µM,0.751
same,relative viability,NCI-H1993; first compound 0.05 µM,0.62
same,relative viability,NCI-H1993; first compound 0.1581 µM,0.56
same,relative viability,NCI-H1993; first compound 0.5 µM,0.596
same,relative viability,201T; first compound 0.005 µM,0.891
same,relative viability,201T; first compound 0.01581 µM,0.869
same,relative viability,201T; first compound 0.05 µM,0.77
same,relative viability,201T; first compound 0.1581 µM,0.824
same,relative viability,201T; first compound 0.5 µM,0.859
same,relative viability,NCI-H1793; first compound 0.005 µM,0.448
same,relative viability,NCI-H1793; first compound 0.01581 µM,0.595
same,relative viability,NCI-H1793; first compound 0.1581 µM,0.49
same,relative viability,NCI-H1793; first compound 0.5 µM,0.345
same,relative viability,COR-L23; first compound 0.005 µM,0.428
same,relative viability,COR-L23; first compound 0.01581 µM,0.425
same,relative viability,COR-L23; first compound 0.05 µM,0.432
same,relative viability,COR-L23; first compound 0.1581 µM,0.428
same,relative viability,COR-L23; first compound 0.5 µM,0.437
same,relative viability,NCI-H3122; first compound 0.005 µM,0.407
same,relative viability,NCI-H3122; first compound 0.01581 µM,0.446
same,relative viability,NCI-H3122; first compound 0.05 µM,0.471
same,relative viability,NCI-H3122; first compound 0.1581 µM,0.433
same,relative viability,NCI-H3122; first compound 0.5 µM,0.444
same,relative viability,HCC-44; first compound 0.005 µM,0.921
same,relative viability,HCC-44; first compound 0.01581 µM,0.867
same,relative viability,HCC-44; first compound 0.05 µM,0.903
same,relative viability,HCC-44; first compound 0.1581 µM,0.861
same,relative viability,HCC-44; first compound 0.5 µM,0.898
same,relative viability,NCI-H2405; first compound 0.005 µM,0.75
same,relative viability,NCI-H2405; first compound 0.01581 µM,0.812
same,relative viability,NCI-H2405; first compound 0.05 µM,0.885
same,relative viability,NCI-H2405; first compound 0.1581 µM,0.717
same,relative viability,NCI-H2405; first compound 0.5 µM,0.771
same,relative viability,NCI-H647; first compound 0.005 µM,0.403
same,relative viability,NCI-H647; first compound 0.01581 µM,0.413
same,relative viability,NCI-H647; first compound 0.05 µM,0.409
same,relative viability,NCI-H647; first compound 0.1581 µM,0.275
same,relative viability,NCI-H647; first compound 0.5 µM,0.32
same,relative viability,NCI-H520; first compound 0.005 µM,0.432
same,relative viability,NCI-H520; first compound 0.01581 µM,0.48
same,relative viability,NCI-H520; first compound 0.05 µM,0.423
same,relative viability,NCI-H520; first compound 0.1581 µM,0.487
same,relative viability,NCI-H520; first compound 0.5 µM,0.489
same,relative viability,NCI-H1734; first compound 0.005 µM,0.51
same,relative viability,NCI-H1734; first compound 0.01581 µM,0.512
same,relative viability,NCI-H1734; first compound 0.1581 µM,0.5
same,relative viability,NCI-H1734; first compound 0.5 µM,0.465
same,relative viability,EPLC-272H; first compound 0.005 µM,0.346
same,relative viability,EPLC-272H; first compound 0.05 µM,0.377
same,relative viability,EPLC-272H; first compound 0.1581 µM,0.302
same,relative viability,EPLC-272H; first compound 0.5 µM,0.38
same,relative viability,NCI-H2347; first compound 0.005 µM,0.668
same,relative viability,NCI-H2347; first compound 0.01581 µM,0.551
same,relative viability,NCI-H2347; first compound 0.05 µM,0.574
same,relative viability,NCI-H2347; first compound 0.1581 µM,0.654
same,relative viability,NCI-H2347; first compound 0.5 µM,0.582
same,relative viability,NCI-H1650; first compound 0.005 µM,0.43
same,relative viability,NCI-H1650; first compound 0.01581 µM,0.424
same,relative viability,NCI-H1650; first compound 0.05 µM,0.399
same,relative viability,NCI-H1650; first compound 0.1581 µM,0.364
same,relative viability,NCI-H1650; first compound 0.5 µM,0.334
same,relative viability,NCI-H2023; first compound 0.005 µM,0.22
same,relative viability,NCI-H2023; first compound 0.01581 µM,0.248
same,relative viability,NCI-H2023; first compound 0.05 µM,0.188
same,relative viability,NCI-H2023; first compound 0.1581 µM,0.191
same,relative viability,NCI-H2023; first compound 0.5 µM,0.229
same,relative viability,RERF-LC-KJ; first compound 0.005 µM,0.834
same,relative viability,RERF-LC-KJ; first compound 0.01581 µM,0.55
same,relative viability,RERF-LC-KJ; first compound 0.05 µM,0.669
same,relative viability,RERF-LC-KJ; first compound 0.1581 µM,0.733
same,relative viability,RERF-LC-KJ; first compound 0.5 µM,0.708
